Laboratory results reported in patent publication US8968784B2, “Method for preparing hydro/organo gelators from disaccharide sugars by biocatalysis and their use in enzyme-triggered drug delivery” (Research Foundation of the City University of New York, priority 2006, dated 2015).
Values after ≈ are worked out from the molar mass of the structure shown.

How the values were obtained:
[1] = Solubilization (encapsulation) of curcumin in hydrogel; type: physicochemical; settings: 0.5 wt % hydrogel of derivative 3, aqueous with cosolvent or surfactant or cyclodextrin
Protocol: (§1) The release of curcumin into the solution in the presence of enzyme was monitored by measuring the curcumin UV-absorption spectrum. The absorption spectrum recorded in aqueous gel solution was compared with the curcumin spectra recorded in methanol. […] To test this hypothesis, water was added to the preformed gel and left for 12 hrs. The UV-absorption of the supernatant was recorded. […] XXVII. Cyclodextrin complexation: solubility, chemical and photochemical stability. Int. J. Pharm. 244, 127-135 (2002).

[2] = biological target: T1, hydrolase enzyme (Lipolase 100L, Type EX) (Thermomyces lanuginosus, UniProt O59952); experiment: Enzyme-triggered gel degradation and curcumin release from hydrogel, monitored by UV absorption; settings: for curcumin release: room temperature
T1 construct: purchased Lipolase 100L, Type EX
T1 sequence (O59952 23-291): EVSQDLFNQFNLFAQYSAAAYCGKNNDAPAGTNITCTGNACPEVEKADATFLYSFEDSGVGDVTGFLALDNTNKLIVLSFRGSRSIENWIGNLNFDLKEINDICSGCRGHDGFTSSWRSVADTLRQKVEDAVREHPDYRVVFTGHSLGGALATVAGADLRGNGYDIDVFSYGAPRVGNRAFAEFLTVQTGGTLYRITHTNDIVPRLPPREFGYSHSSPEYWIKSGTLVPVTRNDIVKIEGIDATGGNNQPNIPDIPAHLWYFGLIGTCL
Protocol: Solubilization of hydrophobic drugs and developing suitable drug delivery systems is a challenging task in drug discovery research.^18 A conceptual approach of single-step enzyme-triggered drug delivery at physiological conditions was performed where a hydrophobic drug molecule was encapsulated—solubilized without chemical modification—in a hydrogel and subsequent release of the drug by breaking the gel by using hydrolase enzyme (Lipolase 100L, Type EX). […] Drug release was monitored by absorbance spectra of the drug. Control of the drug release rate was achieved by manipulating the enzyme concentration and/or temperature. The by-products formed after the gel degradation were characterized and the cleavage site of the gelator by enzyme was determined. Gel degradation occurred due to the cleavage of the ester bond in the gelator by the hydrolase enzyme. ^18Miyata, T., Uragami, T. & Nakamae, K. Biomolecule-sensitive hydrogel. Adv. Drug Delivery Rev. 54, 79-98 (2002).
as §1
First, 0.5 mL of lipase—Lipolase 100L, Type EX, lipase units 100 KLU/g—was added to the preformed gel and kept at 37° C.—far lower than gel melting temperature. […] This was confirmed by spectroscopic experiments. Aliquots were collected after addition of an enzyme to the hydrogel after 10 min and 12 hrs and absorbance spectrum were recorded.
To find out the role of the enzyme on hydrogel degradation, similar experiments were carried out by adding only water without an enzyme. As expected, the curcumin-encapsulated gel was still intact after incubating for a few days at 37° C. There was no visual change in the gel volume and in the added solution. […] To this, 0.5 mL of lipolase was added and incubated at 37° C.
To obtain control on the rate of release, the role of enzyme concentration and temperature on gel degradation or controlled drug release was investigated. In a first set of experiments, the temperature was changed while keeping enzyme concentration constant. After addition of the enzyme to the preformed gel, the vial was kept at room temperature for two days, and as explained previously, curcumin release was monitored by absorption spectra.
In a second set of experiments, the enzyme concentration was changed while keeping the temperature constant. […] At room temperature, even after several days, there was no release. Then the vial was placed at 37° C. in incubation and took 300 min to start the drug release, which eventually took 4,320 min to release completely. In addition to this, a similar low enzyme concentrated vial was directly incubated at 45° C.
It is important to characterize the products/compounds formed after gel degradation. […] Upon gel degradation, a white fluffy solid was produced, which is not soluble in water, and thus settled down in the vial. The solid was isolated and characterized by ^1H-NMR, and it matched with the NMR of pure stearic acid. See FIG. 12, which is a comparison of the ^1H-NMR spectra of commercially available stearic acid and the white fluffy solid obtained after gel degradation, which was filtered, freeze-dried, and NMR recorded in Chloroform.

[3] = Gelation ability in water and organic solvents (inverted tube, visual); type: physicochemical; settings: for gel formation: highly polar solvents like water, methanol, and non-polar solvents like nonane, benzene, toluene
Protocol: Typically, a gelator (0.01-2 mg) in a required solvent (0.1-1 mL) was heated until the solid was completely dissolved. The resulting solution was slowly allowed to cool to room temperature and gelation was visually observed. […] All gels obtained were thermally reversible. Above their gelation temperature, the gels dissolved in water but could be returned to their original gel state upon cooling.
Typically, the gelator (0.01-2 mg) and required solvent (0.1-1 mL) were placed into a 2 mL scintillation vial, which was then sealed with a screw cap. The vial was heated and shook until the solid was completely dissolved. The solution was set aside and allowed to cool to room temperature. Gelation was considered to have occurred when no gravitational flow in the inverted tube was observed.

Molecule: COc1cc(/C=C/C(=O)CC(=O)/C=C/c2ccc(O)c(OC)c2)ccc1O [curcumin]
- solubility [1]: 1000 µM (≈ 368 µg/mL)
- time to complete curcumin release ([2]; lipase 100 KLU/g, 37° C.): ≤ 720 min
- time to start of curcumin release ([2]; lipase 100 KLU/g, 37° C.): 120 min
- time to complete curcumin release ([2]; lipase 100 KLU/g, 45° C.): 270 min
- time to start of curcumin release ([2]; lipase 100 KLU/g, 45° C.): ≤ 30 min
- curcumin release ([2]; lipase 100 KLU/g, two days): no release
- time to complete curcumin release ([2]; lipolase 10 KLU/g, 37° C.): 4,320 min
- time to start of curcumin release ([2]; lipolase 10 KLU/g, 37° C.): 300 min
- time to complete curcumin release ([2]; lipolase 10 KLU/g, 45° C.): 2,880 min
- time to start of curcumin release ([2]; lipolase 10 KLU/g, 45° C.): 180 min
- curcumin release ([2]; lipolase 10 KLU/g, several days): no release
- curcumin in supernatant (UV absorption) ([2]; water added to preformed gel of derivative 3, left 12 hrs, no enzyme): Absence of any absorbance peak

Molecule: Amygdalin Tetradecanoate [derivative 2]
- gel formation [3]: formed gels

Molecule: Amygdalin Octadecanoate [derivative 3]
- gel formation [3]: formed gels
- Minimum gelation concentration (MGC) ([3]; in benzene): 0.2 wt %
- Minimum gelation concentration (MGC) ([3]; in water): 0.05 wt %
- number of solvents gelled ([3]; ten solvents tested (water, polar and nonpolar organic solvents)): all ten solvents
- gel degradation ([2]; hydrogel of derivative 3 without curcumin, 0.5 mL lipolase, 37° C., after 12 hrs): degraded completely
- site of gelator cleavage by enzyme (TLC, 1H-NMR of products) ([2]; products after gel degradation: amygdalin, stearic acid): cleaving the ester bond
